Experimental data reported in article PMC4089482, “Bacterial periplasmic sialic acid-binding proteins exhibit a conserved binding site” (Acta Crystallographica Section D: Biological Crystallography, 2014).
Entries after “also recorded” stand apart in the source; their conditions may differ. Like-named read-outs stand apart in the source and are kept apart here.

Legend:
[1] = tested on: V. cholerae O1 biovar eltor strain N16961; assay: Growth-curve experiment in M9 minimal medium with different sugars; assay type: cell-based, Vibrio cholerae; conditions: M9 minimal medium supplemented with sugar (5 mg ml^−1; all at 5 mM), 37°C
Experimental: V. cholerae O1 biovar eltor strain N16961 was initially grown on LB agar plates. Subsequently, 3 ml M9 minimal medium supplemented with different sugars (5 mg ml^−1) was inoculated with bacteria at an OD600 of 0.07. These cultures were incubated in a 37°C shaker at 225 rev min^−1. Optical densities at A 600 were measured at various time points using a Spectronic GENESYS 20 Visible Spectrophotometer to observe the growth pattern of V. cholerae in different compounds. The different sugars used were Neu5Ac, Neu5Gc, fetuin (a glycoprotein of foetal serum that contains different sugars and sialic acid; Spiro, 1960[▶]), asialofetuin, galactose, glycerol, D-lactic acid, succinate, sucrose, DL-malic acid and fructose, all at 5 mM concentration. Based on the readings, a graph of OD600 was plotted.

[2] = biological target: Fn-SiaP (Fusobacterium nucleatum subsp. nucleatum, UniProt Q8RDN9); assay: ITC binding of sialic acids to Fn-SiaP; conditions: 25°C; for H (change in enthalpy, ΔH) / Kd / T S (entropic component): 20 mM HEPES pH 8.0, 10 mM NaCl
Experimental: (§1) ITC measurements were performed using a MicroCal ITC system (GE Healthcare). The reaction buffer for all of the experiments was 20 mM HEPES pH 8.0, 10 mM NaCl. All titrations were carried out at 25°C. The protein concentration was determined using the Bio-Rad Bradford reagent. The concentrations of SiaP and Neu5Ac/Neu5Gc were varied in the different titrations and each binding experiment was repeated three times. The nonspecific heat released by the dilution of both the sugars and the protein was calculated by averaging the heat liberated during the last 3–5 injections after saturation. This value was then subtracted from the raw heat released during each injection. To derive the stoichiometric values, the data sets were analyzed using a single-site binding model from the Origin ITC analysis software (MicroCal). In this analysis, the values for the stoichiometry, the change in enthalpy (ΔH) and the affinity were fitted using nonlinear least-squares analysis. To derive the values for the affinity, ΔS and ΔH, data sets were globally analyzed using the single-site binding model in SEDPHAT (Vistica et al., 2004[▶]; Dam & Schuck, 2005[▶]).

[3] = biological target: Pm-SiaP (Pasteurella multocida, UniProt Q9CKB5); assay: ITC binding of sialic acids to Pm-SiaP
Experimental: as §1

[4] = biological target: T1, Vc-SiaP (Vibrio cholerae serotype O1, UniProt Q9KR64); assay: ITC binding of sialic acids to Vc-SiaP; conditions: 25°C; for H (change in enthalpy, ΔH) / Kd / T S (entropic component): 20 mM HEPES pH 8.0, 10 mM NaCl
T1 construct: PCR-amplified using the forward primer 5′-[…]-3′; made in house; host or cells: Escherichia coli BL21 (DE3)
T1 sequence (Q9KR64 23-321): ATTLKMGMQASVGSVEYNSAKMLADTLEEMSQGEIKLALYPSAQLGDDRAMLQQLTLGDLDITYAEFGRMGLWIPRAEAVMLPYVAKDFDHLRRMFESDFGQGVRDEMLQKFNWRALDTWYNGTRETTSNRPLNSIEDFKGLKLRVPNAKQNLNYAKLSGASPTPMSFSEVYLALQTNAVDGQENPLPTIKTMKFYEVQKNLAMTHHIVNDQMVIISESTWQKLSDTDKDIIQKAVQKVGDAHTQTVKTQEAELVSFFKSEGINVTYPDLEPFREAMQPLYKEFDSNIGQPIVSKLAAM
Experimental: as §1

[5] = biological target: T2, Hi-SiaP wild type (Haemophilus influenzae, UniProt P44542); assay: ITC binding of Neu5Ac to wild-type Hi-SiaP
T2 construct: made in house
Experimental: as §1

[6] = biological target: T3, Hi-SiaP E67A mutant (Haemophilus influenzae, UniProt P44542, E90A); assay: ITC binding of Neu5Ac to Hi-SiaP E67A
T3 construct: made in house
Experimental: as §1

[7] = biological target: T4, Hi-SiaP E186Q mutant (Haemophilus influenzae, UniProt P44542, E209Q); assay: ITC binding of Neu5Ac to Hi-SiaP E186Q
T4 construct: made in house
Experimental: as §1

[8] = biological target: T5, Hi-SiaP N187Q mutant (Haemophilus influenzae, UniProt P44542, N210Q); assay: ITC binding of Neu5Ac to Hi-SiaP N187Q; conditions: 25°C
T5 construct: made in house
Experimental: as §1

[9] = biological target: T6, Hi-SiaP T64K mutant (Haemophilus influenzae, UniProt P44542, T87K); assay: ITC binding of Neu5Ac to Hi-SiaP T64K
T6 construct: made in house
Experimental: as §1

[10] = biological target: T7, Hi-SiaP H209A mutant (Haemophilus influenzae, UniProt P44542, H232A); assay: ITC binding of Neu5Ac to Hi-SiaP H209A; conditions: 25°C
T7 construct: made in house
Experimental: as §1

[11] = biological target: T8, Hi-SiaP T64R mutant (Haemophilus influenzae, UniProt P44542, T87R); assay: ITC binding of Neu5Ac to Hi-SiaP T64R; conditions: 25°C
T8 construct: made in house
Experimental: as §1

[12] = biological target: T9, Hi-SiaP R127K mutant (Haemophilus influenzae, UniProt P44542, R150K); assay: ITC binding of Neu5Ac to Hi-SiaP R127K; conditions: 25°C
T9 construct: made in house
Experimental: as §1

[13] = tested on: V. cholerae; assay: ELISA (3F11) of Neu5Ac incorporation onto surface LOS; assay type: cell-based, Vibrio cholerae
Experimental: V. cholerae was grown on sBHI agar plates containing 100 µM Neu5Ac and LB. Cells were harvested and resuspended in PBS (20 mM Na2HPO4, 150 mM NaCl pH 7.0) at an OD600 of 0.2. The wells of Costar 96-well EIA/RIA plates (Corning) were filled with 100 µl of the bacterial suspension and six wells were used for each experiment. The plates were dried at 40°C overnight. The plates were washed four times with buffer C (72 mM sodium acetate, 165 mM sodium chloride, 0.55% Tween 20) using an ELx50 Strip Washer (BioTek Instruments, Winooski, Vermont, USA). A neuraminidase digest was performed on three wells by adding 100 µl 0.01 U ml^−1 neuraminidase (Roche Diagnostics GmbH, Mannheim, Germany) diluted in neuraminidase buffer (50 mM sodium acetate, 154 mM NaCl, 9 mM CaCl2, 25 µg ml^−1 human serum albumin pH 5.6) and the other three wells were treated with just the buffer. The plate was incubated for 6 h at 37°C and the wells were then washed. The monoclonal antibody 3F11, diluted 1/200 in buffer C, was added to each well. The plates were incubated at 37°C overnight (approximately 18 h) followed by a wash. The secondary antibody, phosphatase-labelled goat anti-mouse IgM (Kirkegaard and Perry Laboratories, Gaithersburg, Maryland, USA), diluted 1/2000 in buffer C, was added. […] When a yellow colour had developed, the absorbance at 405 nm was read using a Microplate Autoreader EL311 (BioTek Instruments).

[14] = biological target: T2, Hi-SiaP wild type; design: method as in Johnston et al. (2008); conditions: taken for comparison; ref Johnston et al. (2008); cited from earlier work
[15] = ITC, 20 mM HEPES pH 8.0, 10 mM NaCl, 25°C
[16] = ITC, 20 mM HEPES pH 8.0, 10 mM NaCl, 25°C, read-out: K d

Molecule: O=C(O)CC(O)C(=O)O (racemic) [DL-malic acid]
- growth of V. cholerae in the presence of the compound (OD600) [1]: Little growth

Molecule: O=C(CO)N[C@H]1[C@H]([C@H](O)[C@H](O)CO)OC(O)(C(=O)O)C[C@@H]1O (stereo partly drawn) [Neu5Gc]
- H (change in enthalpy, ΔH) [2]: 12074 calmol^1
- Kd [2]: 45.7 nM
- T S (entropic component) [2]: 2059.4 calmol^1
- H (change in enthalpy, ΔH) [3, 15]: 7469 calmol^1
- T S (entropic component) [3, 15]: 2777.3 calmol^1
- Kd [3, 16]: 30.7 nM
- H (change in enthalpy, ΔH) [4]: 5200 calmol^1
- Kd [4]: 1090 nM
- T S (entropic component) [4]: 1127.6 calmol^1
- growth of V. cholerae in the presence of the compound (OD600) [1]: No growth; also recorded: cannot use Neu5Gc as a carbon source

Molecule: O=C(O)CCC(=O)O [succinate]
- growth of V. cholerae in the presence of the compound (OD600) [1]: Little growth

Molecule: C[C@@H](O)C(=O)O [D-lactic acid]
- growth of V. cholerae in the presence of the compound (OD600) [1]: No growth

Molecule: CC(=O)N[C@H]1[C@H]([C@H](O)[C@H](O)CO)OC(C(=O)O)=C[C@@H]1O [Neu5Ac2en, N-acetyl-2,3-dehydro-2-deoxyneuraminic acid]
- interaction measured by ITC [2]: no measurable interaction
- interaction measured by ITC ([3]; ITC, 25°C): no measurable interaction
- interaction measured by ITC [4]: no measurable interaction

Molecule: O=C(CO)[C@@H](O)[C@H](O)[C@H](O)CO [fructose]
- growth of V. cholerae in the presence of the compound (OD600) [1]: Little growth

Molecule: O=C[C@H](O)[C@@H](O)[C@@H](O)[C@H](O)CO [galactose]
- growth of V. cholerae in the presence of the compound (OD600) [1]: No growth

Molecule: OC[C@H]1O[C@@](CO)(O[C@H]2O[C@H](CO)[C@@H](O)[C@H](O)[C@H]2O)[C@@H](O)[C@@H]1O [sucrose]
- growth of V. cholerae in the presence of the compound (OD600) [1]: Little growth

Molecule: CC(=O)NC1C(O)CC(O)(C(=O)O)OC1C(O)C(O)CO (stereo not drawn) [Neu5Ac]
- H (change in enthalpy, ΔH) [2]: 9165 calmol^1
- Kd [2]: 45.5 nM
- T S (entropic component) [2]: 849.3 calmol^1
- H (change in enthalpy, ΔH) [3, 15]: 6560 calmol^1
- T S (entropic component) [3, 15]: 3948.2 calmol^1
- Kd [3, 16]: 19.7 nM
- Kd ([3]; fit box of the isotherm in Figure 4, single-site model, read-out: K (association constant) (converted)): 27 nM
- H (change in enthalpy, ΔH) [4]: 7175 calmol^1
- Kd [4]: 306 nM
- T S (entropic component) [4]: 508.9 calmol^1
- affinity for Neu5Ac in words [5]: nanomolar affinity
- Kd ([5]; 20 mM HEPES pH 8.0, 10 mM NaCl, 25°C): 16.6 nM
- H (change in enthalpy, ΔH) ([5]; 25°C): 17500 calmol^1
- T S (entropic component) ([5]; 25°C): 6883 calmol^1
- affinity for Neu5Ac in words [6]: micromolar affinity
- H (change in enthalpy, ΔH) ([6]; 25°C): 249.5 calmol^1
- T S (entropic component) ([6]; 25°C): 6168.6 calmol^1
- affinity for Neu5Ac in words [7]: micromolar affinity
- H (change in enthalpy, ΔH) ([7]; 25°C): 6827 calmol^1
- T S (entropic component) ([7]; 25°C): 1016 calmol^1
- H (change in enthalpy, ΔH) [8]: 7939 calmol^1
- T S (entropic component) [8]: 40.826 calmol^1
- affinity for Neu5Ac in words [9]: micromolar affinity
- H (change in enthalpy, ΔH) ([9]; 25°C): 8743 calmol^1
- T S (entropic component) ([9]; 25°C): 294.72 calmol^1
- H (change in enthalpy, ΔH) [10]: 13360 calmol^1
- T S (entropic component) [10]: 4917 calmol^1
- K d / binding to Neu5Ac [11]: No measurable binding
- K d / binding to Neu5Ac [12]: did not bind to Neu5Ac with measurable affinity; also recorded: No measurable binding
- growth of V. cholerae in the presence of the compound (OD600) [1]: grows
- 3F11 binding of V. cholerae grown with Neu5Ac (ELISA) ([13]; 100 µM Neu5Ac, binding did occur after neuraminidase: sialic acid incorporated into surface LOS): did not bind 3F11
- difference in absorbance before and after adding neuraminidase (level of Neu5Ac incorporation) ([13]; 3F11 ELISA, Figure S4, very little difference in LB media control): significant difference
- H (change in enthalpy, ΔH) [14]: 15300 calmol^1
- Kd [14]: 28 nM
- T S (entropic component) [14]: 5000 calmol^1

Molecule: OCC(O)CO [glycerol]
- growth of V. cholerae in the presence of the compound (OD600) [1]: No growth

B1: fetuin: a glycoprotein of foetal serum that contains different sugars and sialic acid (protein, UniProt P12763 19-359, looked up)
Alpha-2-HS-glycoprotein: IPLDPVAGYKEPACDDPDTEQAALAAVDYINKHLPRGYKHTLNQIDSVKVWPRRPTGEVYDIEIDTLETTCHVLDPTPLANCSVRQQTQHAVEGDCDIHVLKQDGQFSVLFTKCDSSPDSAEDVRKLCPDCPLLAPLNDSRVVHAVEVALATFNAESNGSYLQLVEISRAQFVPLPVSVSVEFAVAATDCIAKEVVDPTKCNLLAEKQYGFCKGSVIQKALGGEDVRVTCTLFQTQPVIPQPQPDGAEAEAPSAVPDAAGPTPSAAGPPVASVVVGPSVVAVPLPLHRAHYDLRHTFSGVASVESSSGEAFHVGKTPIVGQPSIPGGPVRLCPGRIRYFKI
- growth of V. cholerae in the presence of the compound (OD600) [1]: grows

B2: asialofetunin: asialofetuin, used as a carbon source in the growth experiment (protein, UniProt P12763 19-359, looked up)
Alpha-2-HS-glycoprotein: B1 Alpha-2-HS-glycoprotein
modifications: desialylated
notes: asialofetuin, used as a carbon source in the growth experiment
- growth of V. cholerae in the presence of the compound (OD600) [1]: No growth
